# Read-outs that look alike come from different tables or passages of the source.
# How the values were obtained:
# [1] = tested on: rhythmic bladder-voiding contractions; assay: Rhythmic bladder-voiding contractions induced by bladder filling in anaesthetised rats; type: in vivo, rat; conditions: for ED50: Rattus norvegicus
# Procedure: Female Sprague-Dawley rats weighing 225-275 g (Crl: CD® (SD) IGS BR, Charles River Italia) were used. The animals were housed with free access to food and water and maintained on a forced 12-hour alternating light-dark cycle at 22-24° C. for at least one week, except during the experiment. The activity on rhythmic bladder voiding contractions was evaluated according to the method of Dray (Dray J., Pharmacol. Methods, 13:157, 1985), with some modifications as in Guarneri (Guarneri, Pharmacol. Res. 27:173, 1993). Briefly, the rats were anaesthetised by subcutaneous injection of 1.25 g/kg (5 ml/kg) urethane, after which the urinary bladder was catheterised via the urethra using PE 50 polyethylene tubing filled with physiological saline. The catheter was tied in place with a ligature around the external urethral orifice and was connected to conventional pressure transducers (Statham P23 ID/P23 XL). […] The bladder was then filled via the recording catheter by incremental volumes of warm (37° C.) saline until reflex bladder-voiding contractions occurred (usually 0.8-1.5 ml). For intravenous injection of bioactive compounds, PE 50 polyethylene tubing filled with physiological saline was inserted into the jugular vein.
# From the cystometrogram, the number of contractions recorded 15 minutes before (basal values) and after treatment, as well as the mean amplitude of these contractions (mean height of the peaks in mmHg), was evaluated.
# Since most compounds produced an effect that was relatively rapid in onset and led to a complete cessation of bladder contractions, bioactivity was conveniently estimated by measuring the duration of bladder quiescence (i.e., the time during which no contractions occurred). The number of tested animals showing a reduction in the number of contractions higher than 30% of that observed in the basal period was recorded too.
# The extrapolated doses which induced a reduction in the number of contractions greater than 30% in 50% of the treated rats (ED50) were also evaluated by the method of Bliss (Bliss C. I., Quart J. Pharm. Pharmacol. 11, 192-216, 1938).
# urinary bladder = assay: Cystometric parameters in conscious rats after oral administration; type: in vivo, rat; conditions: 3 mg/kg p.o., 1-5 h after treatment
# Procedure: Male Sprague-Dawley rats [Crl: CD® (SD) IGS BR] of 300-400 g body weight supplied by Charles River Italia were used. The animals were housed with free access to food and water and maintained on a forced 12-hour-light/12-hour-dark cycle at 22-24° C. of temperature, except during the experiment. To quantify urodynamic parameters in conscious rats, cystometrographic studies were performed according to the procedure previously reported (Guarneri et al., Pharmacol. Res. 24: 175, 1991).
# Briefly, the rats were anaesthetised by intraperitoneal administration of 3 ml/kg of Equithensin solution (pentobarbital 30 mg/kg and chloral hydrate 125 mg/kg) and placed in a supine position. An approximately 10 mm-long midline incision was made in the shaved and cleaned abdominal wall. The urinary bladder was gently freed from adhering tissues, emptied and then cannulated via an incision in the bladder body, using a polyethylene cannula (0.58-mm internal diameter, 0.96-mm external diameter) which was permanently sutured with silk thread. The cannula was exteriorised through a subcutaneous tunnel in the retroscapular area, where it was connected to a plastic adapter in order to avoid the risk of removal by the animal. For drug testing, the rats were utilised one day after implantation.
# On the day of the experiment, the rats were placed in modified Bollman cages, i.e., restraining cages that were large enough to permit the rats to adopt a normal crouched posture, but narrow enough to prevent turning around. After a stabilisation period of about 20 minutes, the free tip of the bladder cannula was connected through a T-shaped tube to a pressure transducer (Statham P23XL) and to a peristaltic pump (Gilson minipuls 2) for continues infusion of a warm (37° C.) saline solution into the urinary bladder, at a constant rate of 0.1 ml/minute. The intraluminal-pressure signal during infusion of saline into the bladder was continuously recorded on a polygraph (Rectigraph-8K San-ei with BM614/2 amplifier from Biomedica Mangoni). The cystometrogram was used to evaluate the urodynamic parameters of bladder volume capacity (BVC) and micturition pressure (MP). BVC (ml) is defined as the volume of saline infused into the bladder necessary to induce detrusor contraction followed by micturition. MP (mmHg) is defined as the maximal intravesical pressure caused by contraction during micturition. Basal BVC and MP values were evaluated as mean of the values observed in the cystometrograms recorded in an initial period of 30-60 minutes. Following determination of basal BVC and MP, the infusion was interrupted and the test compounds were administered orally by a stomach tube. Bladder infusion was resumed and changes in BVC and MP were evaluated from the mean values obtained in the cystometrograms observed during 1, 2, 3, 4 and 5 hours after treatment. Compounds were administered in a volume of 2 ml/kg and groups of control animals received the same amount of vehicle (0.5% methocel in water) orally.
# Data were expressed as mean ±standard error. The percent changes of BVC and MP versus the basal values, as well as Δ values (difference in ml or mmHg) of BVC and MP (BVC or MP at time “x” minus basal value), were also evaluated for each rat/time. In the figures, data were reported as % changes versus basal values.
# Statistical analysis on BVC and MP values, as well as on Δ values, was performed by S.A.S./STAT software, version 6.12. The observed differences between vehicle (control) and test treatments were evaluated on Δ values of BVC and MP, whereas the differences between the values at different times versus basal values were analyzed on original BVC and MP data.
# primates = conditions: cited from earlier work
# [2] = tested on: release of glutamate and acetylcholine; conditions: dentate gyrus of the hippocampus; cited from earlier work
# aged rhesus monkeys = conditions: 1 mg/kg p.o.; cited from earlier work
# marmosets = conditions: 2 mg/kg i.m., visual spatial discrimination; cited from earlier work
# [3] = tested on: 5-HT1A agonist discriminative stimulus cue; conditions: 0.01-1 mg/kg i.m.; cited from earlier work
structure (smiles),measurement,setting,value
"CCN(CC)CC#CCOC(=O)C(O)(c1ccccc1)C1CCCCC1 (stereo not drawn) [Oxybutynin, oxybutynin]",ED50,"[1]; intravenous administration, n.a. = not active, no significant reduction of the height of the peaks, read-out: ED50 (amplitude) (extrapolated dose inducing a 30% reduction of amplitude of the contractions in 50% of treated rats)",0.24 mg/kg
same,ED50,"[1]; intravenous administration, read-out: ED50 (frequency) (extrapolated dose inducing a reduction of the number of contractions >30% in 50% of treated rats)",> 10 mg/kg
same,frequency of bladder contractions,[1]; at 240 μg/kg,did not lower the frequency
same,ED10 min (extrapolated dose inducing 10 minutes of disappearance of the contractions),[1]; intravenous administration,7.77 mg/kg
same,bladder volume capacity (BVC),urinary bladder,"slight, not-significant increase"
same,micturition pressure (MP),urinary bladder,greatly reduced
COc1ccccc1N1CCN(CCN(C(=O)C2CCCCC2)c2ccccn2)CC1 [WAY-100635],cognitive deficits induced by glutamatergic and cholinergic dysfunction,primates,can alleviate
C[C@H](CN(C(=O)c1ccc(C#N)cc1)c1ccccn1)N1CCN(c2cccc3c2OCCO3)CC1 [lecozotan],potassium chloride-stimulated release of glutamate and acetylcholine,[2],significantly potentiated
same,task performance efficiency,aged rhesus monkeys,significant improvement
same,learning deficits induced by MK-801 and by cholinergic lesions of the hippocampus,marmosets,reversed
same,blockade of the 5-HT1A agonist discriminative stimulus cue,[3],dose-related blockade
same,substitution for 8-OH-DPAT,[3],did not substitute

# Source: US20070270436A1, “NOVEL AMINO- AND IMINO-ALKYLPIPERAZINES” (Recordati Ireland Limited, priority 2006, published 2007)
